Test results as given in US11339130B1 (Blade Therapeutics, Inc., priority 2016, dated 2022).

What was measured:
[1] = molecular target: T1, Human Calpain 1/NS1 (Homo sapiens, UniProt P07384); assay: Calpain inhibition continuous fluorescence (FRET) assay, Human Calpain 1/NS1; type: biochemical; details: Column A; read-out: Human Calpain 1/NS1 IC50
T1 sequence (P07384 1-714): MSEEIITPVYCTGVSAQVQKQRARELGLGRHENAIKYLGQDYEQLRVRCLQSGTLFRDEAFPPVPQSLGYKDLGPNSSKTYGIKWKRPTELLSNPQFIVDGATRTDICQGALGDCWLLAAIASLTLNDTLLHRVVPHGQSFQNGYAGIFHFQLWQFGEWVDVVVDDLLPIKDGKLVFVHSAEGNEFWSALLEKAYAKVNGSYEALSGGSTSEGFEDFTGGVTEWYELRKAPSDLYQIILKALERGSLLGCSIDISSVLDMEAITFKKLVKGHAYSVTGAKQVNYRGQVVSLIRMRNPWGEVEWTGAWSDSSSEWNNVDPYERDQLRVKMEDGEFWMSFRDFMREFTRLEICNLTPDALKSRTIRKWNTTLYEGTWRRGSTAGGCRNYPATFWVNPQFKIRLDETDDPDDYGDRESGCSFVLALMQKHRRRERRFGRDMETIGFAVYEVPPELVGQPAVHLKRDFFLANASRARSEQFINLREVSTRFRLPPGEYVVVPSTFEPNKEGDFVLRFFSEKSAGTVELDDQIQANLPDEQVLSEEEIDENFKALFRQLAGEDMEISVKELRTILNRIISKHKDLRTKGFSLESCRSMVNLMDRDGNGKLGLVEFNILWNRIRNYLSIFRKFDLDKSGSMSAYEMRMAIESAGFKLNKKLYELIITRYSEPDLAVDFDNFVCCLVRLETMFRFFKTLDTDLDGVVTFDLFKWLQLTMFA
T1 sequence (P04632 1-268 partner): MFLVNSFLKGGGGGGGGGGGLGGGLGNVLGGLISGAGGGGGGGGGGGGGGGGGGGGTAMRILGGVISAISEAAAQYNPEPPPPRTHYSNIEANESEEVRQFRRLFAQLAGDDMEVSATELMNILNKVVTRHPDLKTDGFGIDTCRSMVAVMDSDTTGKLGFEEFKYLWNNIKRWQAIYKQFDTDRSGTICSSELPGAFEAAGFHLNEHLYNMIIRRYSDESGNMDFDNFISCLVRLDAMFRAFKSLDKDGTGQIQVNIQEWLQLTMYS
How it was run: (§1)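 Calpain activity is measured kinetically with a quenched FRET peptide in 50 mM Tris pH 7.5, 100 mM NaCl, 1 mM DTT, with CaCl2 triggering activation. Rates over 1-5 min are plotted against log inhibitor to obtain IC50 by 4-parameter logistic fitting.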

[2] = molecular target: T2, Human Calpain 2/NS1 (Homo sapiens, UniProt P17655); assay: Calpain inhibition continuous fluorescence (FRET) assay, Human Calpain 2/NS1; type: biochemical; details: Column B; read-out: Human Calpain 2/NS1 IC50
T2 sequence (P17655 1-700): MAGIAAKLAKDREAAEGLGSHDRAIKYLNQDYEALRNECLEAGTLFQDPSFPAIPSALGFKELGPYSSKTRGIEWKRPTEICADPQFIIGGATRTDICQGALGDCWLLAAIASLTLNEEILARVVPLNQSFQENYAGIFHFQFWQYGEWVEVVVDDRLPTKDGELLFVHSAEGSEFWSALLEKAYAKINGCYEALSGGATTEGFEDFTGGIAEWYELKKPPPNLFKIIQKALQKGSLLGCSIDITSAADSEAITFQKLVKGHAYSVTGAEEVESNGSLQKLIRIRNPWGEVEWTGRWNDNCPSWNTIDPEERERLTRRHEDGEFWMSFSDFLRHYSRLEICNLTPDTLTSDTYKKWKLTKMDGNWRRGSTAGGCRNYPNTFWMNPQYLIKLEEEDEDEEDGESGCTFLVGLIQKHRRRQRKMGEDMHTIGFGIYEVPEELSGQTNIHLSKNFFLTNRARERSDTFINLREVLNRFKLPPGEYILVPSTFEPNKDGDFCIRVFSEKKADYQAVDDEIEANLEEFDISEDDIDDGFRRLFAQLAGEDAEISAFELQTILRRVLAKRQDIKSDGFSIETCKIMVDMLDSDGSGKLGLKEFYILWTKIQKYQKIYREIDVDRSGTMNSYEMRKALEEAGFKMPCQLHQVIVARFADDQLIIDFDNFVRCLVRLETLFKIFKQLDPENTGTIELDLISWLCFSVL
T2 sequence (P04632 1-268 partner): T1 sequence (P04632 1-268 partner)
How it was run: as §1

[3] = molecular target: T3, Human Calpain 9/NS1 (Homo sapiens, UniProt O14815); assay: Calpain inhibition continuous fluorescence (FRET) assay, Human Calpain 9/NS1; type: biochemical; details: Column C; read-out: Human Calpain 9/NS1 IC50
T3 sequence (O14815 1-690): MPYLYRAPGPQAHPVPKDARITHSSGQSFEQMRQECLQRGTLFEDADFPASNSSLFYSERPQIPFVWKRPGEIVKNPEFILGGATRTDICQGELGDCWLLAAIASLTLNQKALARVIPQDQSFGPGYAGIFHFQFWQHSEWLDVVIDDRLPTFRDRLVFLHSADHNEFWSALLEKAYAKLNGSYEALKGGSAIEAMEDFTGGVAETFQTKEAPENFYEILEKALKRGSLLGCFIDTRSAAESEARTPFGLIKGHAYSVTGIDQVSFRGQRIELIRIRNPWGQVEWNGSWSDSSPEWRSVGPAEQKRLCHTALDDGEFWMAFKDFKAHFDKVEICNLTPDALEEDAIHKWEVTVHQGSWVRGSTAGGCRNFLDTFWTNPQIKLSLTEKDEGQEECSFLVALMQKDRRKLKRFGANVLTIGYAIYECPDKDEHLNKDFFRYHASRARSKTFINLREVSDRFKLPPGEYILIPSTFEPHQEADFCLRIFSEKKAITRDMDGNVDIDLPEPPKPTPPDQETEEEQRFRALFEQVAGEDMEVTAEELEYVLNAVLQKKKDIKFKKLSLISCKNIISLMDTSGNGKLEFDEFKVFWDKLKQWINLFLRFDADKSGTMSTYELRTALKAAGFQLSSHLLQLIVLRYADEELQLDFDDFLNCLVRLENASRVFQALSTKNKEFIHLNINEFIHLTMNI
T3 sequence (P04632 1-268 partner): T1 sequence (P04632 1-268 partner)
How it was run: as §1

[4] = tested on: Calpain activity in SH-SY5Y cells (SBDP-150); assay: SH-SY5Y Spectrin western blot assay (SBDP-150 breakdown product, A23187-induced); type: cell-based; details: Homo sapiens; Column D; SH-SY5Y cells, A23187-induced SBDP-150; read-out: SH-SY5Y Spectrin IC50
[5] = tested on: Calpain activity in SH-SY5Y cells; assay: SH-SY5Y + AMC fluorescence assay (Suc-LLVY-AMC substrate); type: cell-based; details: Column E, read-out: SH-SY5Y + AMC IC50

IC50 [1] | IC50 [2] | IC50 [3] | IC50 [4] | IC50 [5] | SMILES
< 3 µM | < 3 µM | < 3 µM | 10 to 25 µM | > 25 µM | Cc1cc(C(=O)N[C@@H](Cc2ccccc2)C(=O)C(N)=O)n(-c2ccc(COc3ccccc3)cc2)n1 [Compound 131, (S)—N-(4-amino-3,4-dioxo-1-phenylbutan-2-yl)-3-methyl-1-(4-(phenoxymethyl)phenyl)-1H-pyrazole-5-carboxamide]
< 3 µM | < 3 µM | < 3 µM | 10 to 25 µM | 10 to 25 µM | Cc1cc(C(=O)N[C@@H](Cc2ccccc2)C(=O)C(N)=O)n(-c2cccnc2)n1 [Compound 136, (S)—N-(4-amino-3,4-dioxo-1-phenylbutan-2-yl)-3-methyl-1-(pyridin-3-yl)-1H-pyrazole-5-carboxamide]
< 3 µM | < 3 µM | < 3 µM | 10 to 25 µM | < 10 µM | Cc1cc(C(=O)N[C@@H](Cc2ccccc2)C(=O)C(N)=O)n(-c2cccc(CNC(=O)CCc3ccccc3)c2)n1 [Compound 142, (S)—N-(4-amino-3,4-dioxo-1-phenylbutan-2-yl)-3-methyl-1-(3-((3-phenylpropanamido)methyl)phenyl)-1H-pyrazole-5-carboxamide]
< 3 µM | < 3 µM | < 3 µM | 10 to 25 µM | < 10 µM | CC(=O)NCc1cccc(-n2nc(C)cc2C(=O)N[C@@H](Cc2ccccc2)C(=O)C(N)=O)c1 [Compound 143, (S)-1-(3-(acetamidomethyl)phenyl)-N-(4-amino-3,4-dioxo-1-phenylbutan-2-yl)-3-methyl-1H-pyrazole-5-carboxamide]
< 3 µM | < 3 µM | < 3 µM | < 10 µM | < 10 µM | Cc1cc(C(=O)N[C@@H](Cc2ccccc2)C(=O)C(N)=O)n(-c2cccc(CNC(=O)Cc3ccccc3)c2)n1 [Compound 144, (S)—N-(4-amino-3,4-dioxo-1-phenylbutan-2-yl)-3-methyl-1-(3-((2-phenylacetamido)methyl)phenyl)-1H-pyrazole-5-carboxamide]
< 3 µM | < 3 µM | < 3 µM | < 10 µM | < 10 µM | Cc1cc(C(=O)N[C@@H](Cc2ccccc2)C(=O)C(N)=O)n(-c2cccc(CNS(=O)(=O)c3ccccc3)c2)n1 [Compound 145, (S)—N-(4-amino-3,4-dioxo-1-phenylbutan-2-yl)-3-methyl-1-(3-(phenylsulfonamidomethyl)phenyl)-1H-pyrazole-5-carboxamide]

Continued, molecule first:

SMILES | IC50 [1] | IC50 [2] | IC50 [3] | IC50 [4] | IC50 [5]
Cc1cc(C(=O)N[C@@H](Cc2ccccc2)C(=O)C(N)=O)n(-c2cccc(-c3cccc(F)c3)c2)n1 [Compound 106, (S)—N-(4-amino-3,4-dioxo-1-phenylbutan-2-yl)-1-(3′-fluoro-[1,1′-biphenyl]-3-yl)-3-methyl-1H-pyrazole-5-carboxamide] | < 3 µM | < 3 µM | < 3 µM | < 10 µM | > 25 µM
Cc1nc(-c2ccccc2)c(C(=O)N[C@@H](Cc2ccc(F)cc2)C(=O)C(N)=O)o1 [Compound 107, (S)—N-(4-amino-1-(4-fluorophenyl)-3,4-dioxobutan-2-yl)-2-methyl-4-phenyloxazole-5-carboxamide] | < 3 µM | < 3 µM | < 3 µM | < 10 µM | < 10 µM
NC(=O)C(=O)[C@H](Cc1ccccc1)NC(=O)c1cncn1-c1ccc(-c2ncco2)cn1 [Compound 112, (S)—N-(4-amino-3,4-dioxo-1-phenylbutan-2-yl)-1-(5-(oxazol-2-yl)pyridin-2-yl)-1H-imidazole-5-carboxamide] | < 3 µM | < 3 µM | < 3 µM | < 10 µM | > 25 µM
Cc1cc(C(=O)N[C@@H](Cc2ccccc2)C(=O)C(N)=O)n(-c2ncc(-c3ccccc3)s2)n1 [Compound 113, (S)—N-(4-amino-3,4-dioxo-1-phenylbutan-2-yl)-3-methyl-1-(5-phenylthiazol-2-yl)-1H-pyrazole-5-carboxamide] | < 3 µM | < 3 µM | < 3 µM | < 10 µM | > 25 µM
Cc1cc(C(=O)N[C@@H](Cc2ccccc2)C(=O)C(N)=O)c(-c2ccccc2)o1 [Compound 118, (S)—N-(4-amino-3,4-dioxo-1-phenylbutan-2-yl)-5-methyl-2-phenylfuran-3-carboxamide] | < 3 µM | < 3 µM | < 3 µM | < 10 µM | > 25 µM
Cc1ccc(-n2nc(C)cc2C(=O)N[C@@H](Cc2ccccc2)C(=O)C(N)=O)nc1 [Compound 120, (S)—N-(4-amino-3,4-dioxo-1-phenylbutan-2-yl)-3-methyl-1-(5-methylpyridin-2-yl)-1H-pyrazole-5-carboxamide] | < 3 µM | < 3 µM | < 3 µM | < 10 µM | 10 to 25 µM
Cc1cc(C(=O)N[C@@H](Cc2ccccc2)C(=O)C(N)=O)n(-c2ccc(-c3ccc(F)cc3)cc2)n1 [Compound 126, (S)—N-(4-amino-3,4-dioxo-1-phenylbutan-2-yl)-1-(4′-fluoro-[1,1′-biphenyl]-4-yl)-3-methyl-1H-pyrazole-5-carboxamide] | < 3 µM | < 3 µM | < 3 µM | < 10 µM | > 25 µM
Cc1ccc(-c2ccc(-n3nc(C)cc3C(=O)N[C@@H](Cc3ccccc3)C(=O)C(N)=O)cc2)cc1 [Compound 130] | < 3 µM | < 3 µM | < 3 µM | < 10 µM | > 25 µM
